Experimental data as given in patent US9617256B2 (priority 2007, dated 2017).
Values after ≈ are worked out from the molar mass of the structure shown. Like-named read-outs stand apart in the source and are kept apart here.

Legend:
[1] = tested on: APAE006 (strain of P. aeruginosa in which all efflux pumps are inactivated); assay: microbe, parasite or virus in culture; type: cell-based; conditions: Pseudomonas aeruginosa, read-out: MIC APAE006, APAE006, all efflux pumps inactivated
In short: (§1)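 MICs come from broth microdilution in cation-adjusted Mueller-Hinton broth, final inoculum 3×10^5–7×10^5 CFU/mL, 18-24 hours at 35° C. Levofloxacin and QC strains served as assay controls.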

[2] = tested on: AABA1060 (clinical isolate of Acinetobacter baumannii); assay: MIC broth microdilution, AABA1060; type: cell-based; conditions: Acinetobacter baumannii, read-out: MIC AABA1060
In short: (§2)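 Inocula prepared from 0.5 McFarland suspensions (final 3×10^5–7×10^5 CFU/mL) were added to 2-fold drug dilution series in cation-adjusted Mueller-Hinton broth. Plates stood 18-24 hours at 35° C. under ambient air.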

[3] = tested on: AECO001 (ATCC25922); assay: MIC broth microdilution, AECO001; type: cell-based, E. coli; conditions: for MIC: Escherichia coli
In short: as §2

[4] = tested on: APAE006 in the presence of 8 micrograms per milliliter of polymyxin B nonapeptide; type: cell-based, P. aeruginosa; conditions: APAE006 with 8 micrograms per milliliter polymyxin B nonapeptide
In short: as §1

[5] = tested on: APAE001 (ATCC27853); assay: MIC broth microdilution, APAE001; type: cell-based, P. aeruginosa; conditions: Pseudomonas aeruginosa, ATCC27853, read-out: MIC APAE001, APAE001 (ATCC27853)
In short: as §2

[6] = tested on: AECO063 (ATCC25922 bearing an acrAB mutation); assay: microbe, parasite or virus in culture; type: cell-based, E. coli; conditions: Escherichia coli, ATCC25922, read-out: MIC AECO063
In short: as §2

[7] = tested on: ASAU001 (laboratory strain of S. aureus, ATCC29213); assay: MIC broth microdilution, ASAU001; type: cell-based; conditions: Staphylococcus aureus, ATCC29213, read-out: MIC ASAU001
In short: as §2

[8] = ATCC25922, read-out: MIC AECO001
[9] = ATCC25922, read-out: MIC AECO001 HSA AGP

SMILES	MIC [1]	MIC [2]	MIC [3, 8]	MIC [3, 9]	MIC APAE006 + PMBN [4]	MIC [5]	MIC [6]	MIC [7]	Ratio of MICs on AECO001 [Cpd (A = —CHCH3NH2)/Cpd (A = —C(CH3)2NH2)] ([3]; MIC of paired compound with A = —CHCH3NH2 divided by MIC of compound with A = —C(CH3)2NH2, n=2 data, pairs identical except for the A moiety)
CCOCc1ccc(C#Cc2ccc(C(=O)N[C@H](C(=O)NO)C(C)(C)N)cc2)cc1 [Example 126-1, N—((S)-2-Amino-1-hydroxycarbamoyl-2-methyl-propyl)-4-(4-ethoxymethyl-phenylethynyl)-benzamide]	< 2 µg/mL	< 2 µg/mL	< 2 µg/mL	< 2 µg/mL	A (MIC's of 2.0 μg/mL or less = A)	< 2 µg/mL	< 2 µg/mL	16 to 64 µg/mL (≈ 39.1 to 156 µM)	–
C[C@@H](N)[C@H](NC(=O)c1ccc(C#CC#Cc2cccs2)cc1)C(=O)NO [Example 88-12]	< 2 µg/mL	< 2 µg/mL	< 2 µg/mL	2 to 16 µg/mL (≈ 5.44 to 43.5 µM)	A (MIC's of 2.0 μg/mL or less = A)	< 2 µg/mL	< 2 µg/mL	2 to 16 µg/mL (≈ 5.44 to 43.5 µM)	–
CC(C)(N)[C@H](NC(=O)c1ccc(C#C/C=C/C2CC2)cc1)C(=O)NO [Example 107-4]	< 2 µg/mL	< 2 µg/mL	< 2 µg/mL	< 2 µg/mL	A (MIC's of 2.0 μg/mL or less = A)	< 2 µg/mL	< 2 µg/mL	2 to 16 µg/mL (≈ 5.86 to 46.9 µM)	–
CC(C)(N)[C@H](NC(=O)c1ccc(C#Cc2ccc(CNCCF)cc2)cc1)C(=O)NO [Example 122-6]	< 2 µg/mL	2 to 16 µg/mL (≈ 4.69 to 37.5 µM)	< 2 µg/mL	< 2 µg/mL	A (MIC's of 2.0 μg/mL or less = A)	< 2 µg/mL	< 2 µg/mL	16 to 64 µg/mL (≈ 37.5 to 150 µM)	2.1
CC(C)(O)[C@H](NC(=O)c1ccc(C#Cc2ccc(CN3CCCOCC3)cc2)cc1)C(=O)NO [Example 122-8]	< 2 µg/mL	2 to 16 µg/mL (≈ 4.3 to 34.4 µM)	< 2 µg/mL	< 2 µg/mL	A (MIC's of 2.0 μg/mL or less = A)	< 2 µg/mL	< 2 µg/mL	16 to 64 µg/mL (≈ 34.4 to 137 µM)	–
CC(C)(N)[C@H](NC(=O)c1ccc(/C=C/C#CC2CC2)cc1)C(=O)NO [Example 114-18]	< 2 µg/mL	< 2 µg/mL	< 2 µg/mL	2 to 16 µg/mL (≈ 5.86 to 46.9 µM)	A (MIC's of 2.0 μg/mL or less = A)	< 2 µg/mL	< 2 µg/mL	16 to 64 µg/mL (≈ 46.9 to 187 µM)	–
C[C@@H](O)[C@H](NC(=O)c1ccc(/C=C/C#Cc2cccc(F)c2)cc1)C(=O)NO [Example 137-14]	< 2 µg/mL	2 to 16 µg/mL (≈ 5.23 to 41.8 µM)	< 2 µg/mL	16 to 64 µg/mL (≈ 41.8 to 167 µM)	A (MIC's of 2.0 μg/mL or less = A)	2 to 16 µg/mL (≈ 5.23 to 41.8 µM)	< 2 µg/mL	16 to 64 µg/mL (≈ 41.8 to 167 µM)	–
CC(C)C#C/C=C/c1ccc(C(=O)N[C@H](C(=O)NO)C(C)(C)N)cc1 [Example 114-19]	< 2 µg/mL	< 2 µg/mL	< 2 µg/mL	2 to 16 µg/mL (≈ 5.82 to 46.6 µM)	A (MIC's of 2.0 μg/mL or less = A)	< 2 µg/mL	< 2 µg/mL	2 to 16 µg/mL (≈ 5.82 to 46.6 µM)	–
C[C@@H](N)[C@H](NC(=O)c1ccc(C#Cc2ccc(CN3CCC(F)CC3)cc2)cc1)C(=O)NO [Example 115-1, N-((2S,3R)-3-amino-1-(hydroxyamino)-1-oxobutan-2-yl)-4-((4-((4-fluoropiperidin-1-yl)methyl)phenyl)ethynyl)benzamide]	< 2 µg/mL	2 to 16 µg/mL (≈ 4.42 to 35.4 µM)	< 2 µg/mL	2 to 16 µg/mL (≈ 4.42 to 35.4 µM)	A (MIC's of 2.0 μg/mL or less = A)	2 to 16 µg/mL (≈ 4.42 to 35.4 µM)	< 2 µg/mL	> 64 µg/mL	–
CC(C)(O)[C@H](NC(=O)c1ccc(C#Cc2ccccc2)cc1)C(=O)NO [Example 133-14]	< 2 µg/mL	< 2 µg/mL	< 2 µg/mL	< 2 µg/mL	A (MIC's of 2.0 μg/mL or less = A)	2 to 16 µg/mL (≈ 5.68 to 45.4 µM)	< 2 µg/mL	16 to 64 µg/mL (≈ 45.4 to 182 µM)	–
C[C@@H](N)[C@H](NC(=O)c1ccc(C#CC#Cc2cncnc2)cc1)C(=O)NO [Example 89-4]	< 2 µg/mL	16 to 64 µg/mL (≈ 44 to 176 µM)	16 to 64 µg/mL (≈ 44 to 176 µM)	16 to 64 µg/mL (≈ 44 to 176 µM)	A (MIC's of 2.0 μg/mL or less = A)	2 to 16 µg/mL (≈ 5.5 to 44 µM)	2 to 16 µg/mL (≈ 5.5 to 44 µM)	16 to 64 µg/mL (≈ 44 to 176 µM)	–
CC(C)(N)[C@H](NC(=O)c1ccc(C#CC#Cc2ccc(CNC3CC3)cc2)cc1)C(=O)NO [Example 87-4]	< 2 µg/mL	< 2 µg/mL	< 2 µg/mL	2 to 16 µg/mL (≈ 4.5 to 36 µM)	A (MIC's of 2.0 μg/mL or less = A)	< 2 µg/mL	< 2 µg/mL	16 to 64 µg/mL (≈ 36 to 144 µM)	–
